Experimental data published in patent US10308655B2, “Method of treating Crohn's disease comprising a TLR2 antagonist” (AJOU UNIVERSITY INDUSTRY-ACADEMIC COOPERATION FOUNDATION, priority 2015, dated 2019).

Target: T1, TLR2 (Homo sapiens, UniProt O60603)
T1 construct: host or cells: HEK293-TLR2
Assay: Pam3CSK4-induced IL-8 secretion in HEK293-TLR2 cells (IL-8 ELISA)
Type: cell-based
Settings: compound 1 hour then co-treated with 50 nM Pam3CSK4, FIG. 15
Description: HEK293-TLR2 (expressed at endogenous levels of TLR1) and HEK293-Null cell lines were cultured in 96-well tissue culture plates (BD Biosciences) at a density of 1×10^4 cells/wells, 37° C., 95% air and 5% CO2 for 24 hours. In order to determine the agonist activity, a cell stimulation was achieved by treatment with 50 μM of compound and 50 nM of Pam3CSK4 (Invivogen, San Diego, Calif., USA). In order to determine the antagonist activity, cells were treated with various concentrations of compound for 1 hour and then co-treated with 50 nM of Pam3CSK4. The next day, IL-8 secretion was quantified by human IL-8 ELISA Ready-SET-Go! ® (Second generation) kit (eBioscience, San Diego, Calif., USA) according to the method of the manufacturer's guide, and the quantified results are illustrated in FIG. 15.
For the dose-dependent analysis of the top three compounds (S06690562, S01688300, S01382085) among the six compounds, the concentrations of the three compounds were varied to 12.5, 25, and 50 μM, and the secretion amount of IL-8 was analyzed as the above method. The results are illustrated in FIG. 16.

T1 sequence (O60603 21-784): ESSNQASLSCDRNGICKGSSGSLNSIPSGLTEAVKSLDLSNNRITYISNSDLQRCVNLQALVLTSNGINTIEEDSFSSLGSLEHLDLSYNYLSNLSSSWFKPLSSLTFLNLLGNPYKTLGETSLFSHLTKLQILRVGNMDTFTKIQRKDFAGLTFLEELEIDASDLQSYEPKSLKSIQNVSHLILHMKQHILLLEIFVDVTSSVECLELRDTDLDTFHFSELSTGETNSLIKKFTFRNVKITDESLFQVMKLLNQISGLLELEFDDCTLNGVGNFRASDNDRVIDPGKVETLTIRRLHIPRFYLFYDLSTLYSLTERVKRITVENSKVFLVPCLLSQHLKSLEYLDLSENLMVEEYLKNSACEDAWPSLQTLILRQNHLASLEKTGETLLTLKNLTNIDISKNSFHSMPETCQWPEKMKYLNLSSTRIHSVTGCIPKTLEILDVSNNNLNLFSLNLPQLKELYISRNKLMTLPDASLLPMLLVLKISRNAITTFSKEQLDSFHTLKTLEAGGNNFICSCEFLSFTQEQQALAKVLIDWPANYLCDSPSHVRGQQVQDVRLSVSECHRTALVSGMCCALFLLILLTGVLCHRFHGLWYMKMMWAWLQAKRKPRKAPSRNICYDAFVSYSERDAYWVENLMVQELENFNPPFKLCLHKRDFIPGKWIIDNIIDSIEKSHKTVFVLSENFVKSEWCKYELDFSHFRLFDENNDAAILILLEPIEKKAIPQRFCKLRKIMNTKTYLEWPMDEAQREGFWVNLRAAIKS

| Structure (SMILES) | Pam3CSK4-induced IL-8 secretion amount |
| --- | --- |
| COC(=O)c1c(NC(=O)NCCN2CCOCC2)sc2c1CCC2 [Compound S01382085] | greatly reduced |
| CCN(Cc1ccncc1)Cc1cccc(OCC(O)CN2CCC(O)CC2)c1 (centres unmarked) [Compound S01688300] | greatly reduced |
| CC1CCCN(C(C)CNC(=O)CCNC(=O)C2CC2C)C1 (centres unmarked) [Compound S02276077] | greatly reduced |
| Cc1cc(C)c(NC(=O)CNC(=O)CN(C)CC(=O)NCC(F)(F)F)c(C)c1 [Compound S06690562] | greatly reduced |
| CC(C)Oc1cccc(CC(=O)N2CCCN(CC(N)=O)CC2)c1 [Compound S06696686] | greatly reduced |
